Data from US10226462B2, “Detection and treatment of excessive hair shedding” (Samson Clinical Pty Ltd, priority 2014, dated 2019).

Legend:
[1] = system: telogen effluvium; details: treatments commonly used for AGA; cited from earlier work
[2] = system: chronic telogen effluvium; test: Once daily oral minoxidil in women with chronic telogen effluvium (CTE), hair shedding score and safety; details: for Mean HSS: 36 women, oral 0.5-2.5 mg daily, baseline 5.63; for Reduction in mean HSS: p<0.001
Experimental: The goals of this study were to review the use of oral minoxidil in CTE with respect to the response to hair shedding and safety. Hair shedding was assessed by patient self-reported Hair shedding Scores (HSS) using the visual analogue scale as described in Example 1 and FIG. 1. Hair Shedding Scores (HSS) were on the scale of 1 to 6 (6 being the highest level of hair shedding). Patients included in this study were women with a diagnosis of CTE based on >6 month history of increased telogen hair shedding, a HSS of 4-6, no visible mid frontal scalp hair loss (Sinclair stage 1) and no hair follicle miniaturization on scalp biopsy.
Data pertaining to dosage of oral minoxidil, previous treatments including topical minoxidil use, blood pressure, side effects, hypertrichosis and trichodynia were collected for each patient. Patient-reported responses were based on a visual analogue scale HSS at each consultation. The HSS prior to starting oral minoxidil, and scores at 6 and 12 months were extracted for analysis. Patients were treated with a once daily oral minoxidil (0.5 to 2.5 mg).
Data were analysed using Matlab R2014b statistical software. Hair shedding scores at baseline, 6 and 12 months were analysed using the Wilcoxon rank sum test for pair-wise comparisons. Differences in blood pressure at baseline and 6 months were also analysed using Wilcoxon rank sum test. Relationship between outcomes (HSS at six and 12 months) and individual patient specific variables including previous use of […], duration of disease, dosage and HSS at baseline were analysed using a generalised linear regression model.

[3] = system: androgenetic alopecia (male pattern hair loss); test: Pilot open study of oral minoxidil 0.25 mg once daily for 24 weeks in men with AGA; format: in vivo, human; details: 0.25 mg daily
Experimental: This study was a pilot, prospective, open, observational study conducted at the Sinclair Dermatology Clinic in Melbourne, Australia. Participants were dosed for 24 weeks. Treatment naïve men with Hamilton Norwood staged III vertex, IV or V were treated for 24 weeks with minoxidil 0.25 mg once daily. The primary efficacy endpoint was investigators' photographic assessment at week 24 and adverse events. Investigator photographic assessment was conducted by a single investigator grading the photographs using a 3 point rating scale, ranging from “decreased hair growth” to “increased hair growth,” centred at no change. Any reports of adverse events were collected at every visit.

[4] = system: Monilethrix; test: Oral minoxidil in two cases of monilethrix
Experimental: Patient 6: A person presented with lifelong fragile, sparse, and thin hair. […] Comorbidities included Crohn's disease and impaired hearing. Their child and two sons had also been diagnosed with monilethrix and suffered from sparse and fragile hair. […] As the application of topical minoxidil could potentially accentuate breakage of fragile hairs, treatment was commenced with oral minoxidil 0.25 mg daily.
Patient 7: A person with fragile, thin and sparse hair since childhood secondary to monilethrix presented for assessment and treatment. […] As the application of topical minoxidil could potentially accentuate breakage of fragile hairs oral Minoxidil 0.25 mg daily was commenced.

[5] = system: bitemporal hair loss in female pattern hair loss; test: Oral minoxidil 0.25 mg daily in women with bitemporal recession in female pattern hair loss; format: in vivo, human; details: for Hair shedding (HSS stage): baseline stage 6

Compound: CC(=O)O[C@]1(C(C)=O)CC[C@H]2[C@@H]3C=C(Cl)C4=CC(=O)[C@@H]5C[C@@H]5[C@]4(C)[C@H]3CC[C@@]21C [cyproterone acetate]
- Efficacy in TE [1]: do not work

Compound: CC(C)(C)NC(=O)[C@H]1CC[C@H]2[C@@H]3CC[C@H]4NC(=O)C=C[C@]4(C)[C@H]3CC[C@]12C [finasteride]
- Efficacy in TE [1]: do not work

Compound: Nc1cc(N2CCCCC2)nc(N)[n+]1[O-] [minoxidil]
- Patients in whom the HSS improved ([2]; after 6 months, of 36): 31
- Patients in whom the HSS remained the same ([2]; after 6 months, of 36): 4
- Mean HSS ([2]; at 6 months): 3.9
- Mean HSS ([2]; at 12 months): 3.05
- Patients in whom the HSS increased ([2]; at the 6-month mark, of 36): 1
- Patients improved from baseline ([2]; at the 12 month mark, of 36): 33
- Reduction in mean HSS ([2]; baseline to 6 months): 1.7
- Reduction in mean HSS ([2]; baseline to 12 months): 2.58
- Mean reduction in HSS ([2]; between 6 months and 12 months, p=0.003): 0.89
- Lowest blood pressure recorded ([2]; in vivo): 90/70
- Mean change in blood pressure, diastolic ([2]; in vivo): plus 2.1 mmHg
- Mean change in blood pressure, systolic ([2]; in vivo): minus 0.5 mmHg
- Mean dose in patient group with hypertrichosis (Yes) ([2]; in vivo): 1.46 mg
- Mean dose in patient group with trichodynia (Yes) ([2]; in vivo): 1.19 mg
- Mean dose in patient group without hypertrichosis (No) ([2]; in vivo): 0.99 mg
- Mean dose in patient group without trichodynia (No) ([2]; in vivo): 1.11 mg
- Patients who developed ankle oedema ([2]; of 36): One
- Patients who developed any blood test abnormalities ([2]; of 36): No patients
- Women who developed facial hypertrichosis ([2]; of 36): Thirteen
- Patients who developed transient postural dizziness ([2]; of 36, resolved with continued treatment): Two
- Difference between blood pressure at baseline and 6 months ([2]; p>0.05): no significant differences
- Mean reduction in HSS ([2]; patients who had not used topical minoxidil, at 12 months): 2.32
- Mean reduction in HSS ([2]; patients who had not used topical minoxidil, at six months): 1.56
- Mean reduction in HSS ([2]; patients who had previously used topical minoxidil, at 12 months): 3.18
- Mean reduction in HSS ([2]; patients who had previously used topical minoxidil, at six months): 2
- Tolerability ([3]; patients with MPHL): well tolerated
- Adverse events ([3]; six men, 24 weeks): No adverse events
- Side effects ([4]; Patient 6, oral 0.25 mg daily): did not experience any side effects or complication
- Tolerability ([4]; low doses, oral): well tolerated
- Side-effects ([5]; Patient 8): no side-effects
- Hair shedding (HSS stage) ([5]; Patient 8, 0.25 mg, review at 3 months): 5
- Blood pressure ([5]; Patient 8, review at 3 months, baseline 110/70): 115/65
- Facial hypertrichosis ([5]; Patient 8, review at 3 months, present at baseline): unaltered
- Side effects or complications of treatment ([5]; Patient 9): not experienced any side effects or complications
- Hair shedding (HSS stage) ([5]; Patient 9, 0.25 mg once daily with continued spironolactone 100 mg daily, review at 6 weeks): 4
- Blood pressure ([5]; Patient 9, review at 6 weeks, baseline 140/85): 125/85

Compound: CC(=O)S[C@@H]1CC2=CC(=O)CC[C@]2(C)[C@H]2CC[C@@]3(C)[C@@H](CC[C@@]34CCC(=O)O4)[C@H]12 [spironolactone]
- Efficacy in TE [1]: do not work
